According to patent US20240251792A1, “WEED CONTROL METHOD” (SYNGENTA CROP PROTECTION AG, priority 2021, published 2024):
Read-outs that look alike come from different tables or passages of the source.

Key:
Type in all cases: in vivo
STEME = test: Pre-emergence biological efficacy (Table 3); conditions: after 13 days; for pest or weed control at 1000 g/ha: 312 h, read-out: evaluation (100=total damage to plant; 0=no damage to plant)
Procedure: (§1) Seeds of weeds and/or crops were sown in standard soil in pots. After cultivation for one day under controlled conditions in a glasshouse (at 24/19° C., day/night; 16 hours light), the plants were sprayed with an aqueous spray solution derived from the formulation of the technical active ingredient in a small amount of acetone and a special solvent and emulsifier mixture referred to as AMA (11.12% Emulsogen EL360 TM+44.44% N-methylpyrrolidone+44.44% Dowanol DPM glycol ether), to create a 50 g/l solution which was then diluted using 0.2% Genapol X080 as diluent to give the desired final dose of test compound.
(§2) The test plants were then grown under controlled conditions in the glasshouse (at 24/18° C., day/night; 15 hours light; 50% humidity) and watered twice daily. After 13 days the test was evaluated (100=total damage to plant; 0=no damage to plant).

ZEAMX = test: Pre-emergence biological efficacy (Table 3); conditions: 1000 g/ha, after 13 days; for plant injury at 1000 g/ha: 312 h, read-out: evaluation (100=total damage to plant; 0=no damage to plant)
Procedure: as §1, §2

ABUTH = test: Pre-emergence biological efficacy (Table 3); conditions: after 13 days; for pest or weed control at 1000 g/ha: Abutilon theophrasti, 312 h, read-out: evaluation (100=total damage to plant; 0=no damage to plant)
Procedure: as §1, §2

IPOHE = test: Pre-emergence biological efficacy (Table 3); conditions: 1000 g/ha, after 13 days; for pest or weed control at 1000 g/ha: Ipomoea hederacea, 312 h, read-out: evaluation (100=total damage to plant; 0=no damage to plant)
Procedure: as §1, §2

AMARE = test: Pre-emergence biological efficacy (Table 3); conditions: 1000 g/ha, after 13 days; for pest or weed control at 1000 g/ha: Amaranthus retroflexus, 312 h, read-out: evaluation (100=total damage to plant; 0=no damage to plant)
Procedure: as §1, §2

ECHCG = test: Pre-emergence biological efficacy (Table 3); conditions: Echinochloa crus-galli, 312 h, 1000 g/ha, after 13 days, read-out: evaluation (100=total damage to plant; 0=no damage to plant)
Procedure: as §1, §2

weeds and/or crops = test: Post-emergence biological efficacy (Table 4); conditions: 1000 g/ha, evaluated after 13 days; for pest or weed control at 1000 g/ha: 312 h
Procedure: as §1, with “14 days” for “one day”, “F50” for “AMA”
as §2

[1] = STEME, read-out: damage to plant STEME (100=total damage; 0=no damage)
[2] = ZEAMX, read-out: damage to plant ZEAMX (100=total damage; 0=no damage)
[3] = Abutilon theophrasti, ABUTH, read-out: damage to plant ABUTH (100=total damage; 0=no damage)
[4] = Amaranthus retroflexus, AMARE, read-out: damage to plant AMARE (100=total damage; 0=no damage)
[5] = Ipomoea hederacea, IPOHE, read-out: damage to plant IPOHE (100=total damage; 0=no damage)
[6] = Echinochloa crus-galli, ECHCG, read-out: damage to plant ECHCG (100=total damage; 0=no damage)

Row | SMILES | pest or weed control at 1000 g/ha (STEME) | plant injury at 1000 g/ha (ZEAMX) | pest or weed control at 1000 g/ha (ABUTH) | pest or weed control at 1000 g/ha (IPOHE) | pest or weed control at 1000 g/ha (AMARE) | pest or weed control at 1000 g/ha (ECHCG) | pest or weed control at 1000 g/ha (weeds and/or crops; [1]) | pest or weed control at 1000 g/ha (weeds and/or crops; [2]) | pest or weed control at 1000 g/ha (weeds and/or crops; [3]) | pest or weed control at 1000 g/ha (weeds and/or crops; [4]) | pest or weed control at 1000 g/ha (weeds and/or crops; [5]) | pest or weed control at 1000 g/ha (weeds and/or crops; [6]) | also measured
1 | COc1ccc(Cl)c(C(F)(F)C(=O)O)c1 [Compound 1-62, 2-(2-Chloro-5-methoxyphenyl)-2,2-difluoroacetic acid] | 80% | 20% | 50% | 20% | 80% | 30% | 60% | 20% | 20% | 60% | 70% |  | 
2 | Nc1ccc(Cl)c(C(F)(F)C(=O)O)c1 [Compound 1-63, 2-(5-Amino-2-chloro-phenyl)-2,2-difluoro-acetic acid] | 0% | 0% | 0% | 0% | 0% | 0% | 0% | 0% | 10% | 20% | 20% | 10% | 
3 | Nc1c(Cl)cc(Cl)c(Cl)c1C(F)(F)C(=O)O [Compound 1-81, 2-(2-Amino-3,5,6-trichloro-phenyl)-2,2-difluoro-acetic acid] | 20% | 0% | 20% | 10% | 30% | 0% | 50% | 0% | 20% | 50% | 50% | 10% | 
4 | COc1cccc(C(F)(F)C(=O)O)c1Cl [Compound 1-209, 2-(2-Chloro-3-methoxyphenyl)-2,2-difluoroacetic acid] | 60% | 0% | 60% | 80% | 70% | 0% | 90% | 10% |  | 80% | 80% | 10% | 
5 | CSc1cccc(C(F)(F)C(=O)O)c1Cl [Compound 1-220, 2-(2-Chloro-3-methylsulfanyl-phenyl)-2,2-difluoro-acetic acid] | 50% | 10% | 80% | 70% | 50% | 0% | 70% | 10% |  | 70% | 70% | 0% | 
6 | Nc1cc(Cl)cc(C(F)(F)C(=O)O)c1Cl [Compound 1-235, 2-(3-Amino-2,5-dichlorophenyl)-2,2-difluoroacetic acid] | 30% | 0% | 30% | 20% | 40% | 10% | 50% | 20% |  | 70% | 30% | 20% | 
7 | Nc1ccc(Cl)c(C(F)(F)C(=O)O)c1Cl [Compound 1-236, 2-(3-Amino-2,6-dichloro-phenyl)-2,2-difluoro-acetic acid] | 0% |  | 0% | 0% | 20% | 0% | 10% | 10% | 0% | 30% | 30% | 0% | 
8 | O=C(O)C(F)(F)c1cc(Cl)cc([N+](=O)[O-])c1Cl [Compound 1-238, 2-(2,5-Dichloro-3-nitrophenyl)-2,2-difluoroaceticacid] | 0% | 0% | 0% | 0% | 0% | 0% | 40% | 0% | 0% | 30% | 0% | 0% | 
9 | Nc1c(Cl)cccc1C(F)(F)C(=O)O [Compound 1-252, 2-(2-Amino-3-chloro-phenyl)-2,2-difluoro-acetic acid] | 10% | 0% | 90% | 50% | 40% | 0% | 90% | 10% | 80% | 20% | 70% | 0% | 
10 | CCOC(=O)C(F)(F)c1c(F)ccc(F)c1O [Compound 3-297, Ethyl 2-(3,6-difluoro-2-hydroxyphenyl)-2,2-difluoroacetate] | 0% | 0% | 0% | 0% | 0% |  | 0% | 20% | 10% | 10% | 10% |  | 
11 | Nc1ccc(Cl)cc1C(F)(F)C(=O)[O-].[Li+] [Compound 5-251, Lithium;2-(2-amino-5-chloro-phenyl)-2,2-difluoro-acetate] |  |  |  |  |  |  |  |  |  |  |  |  | evaluation (100=total damage to plant; 0=no damage to plant) (STEME; 1000 g/ha): 10; evaluation (100=total damage to plant; 0=no damage to plant) (ZEAMX): 0; evaluation (100=total damage to plant; 0=no damage to plant) (ABUTH; 1000 g/ha): 10; evaluation (100=total damage to plant; 0=no damage to plant) (IPOHE): 0; evaluation (100=total damage to plant; 0=no damage to plant) (AMARE): 20; damage to plant ABUTH (100=total damage; 0=no damage) (weeds and/or crops; ABUTH): 20; damage to plant AMARE (100=total damage; 0=no damage) (weeds and/or crops; AMARE): 40; damage to plant ECHCG (100=total damage; 0=no damage) (weeds and/or crops; ECHCG): 0; damage to plant IPOHE (100=total damage; 0=no damage) (weeds and/or crops; IPOHE): 20; damage to plant STEME (100=total damage; 0=no damage) (weeds and/or crops; STEME): 20; damage to plant ZEAMX (100=total damage; 0=no damage) (weeds and/or crops; ZEAMX): 0
12 | COc1c(Cl)ccc(F)c1C(F)(F)C(=O)O [Compound 7-325, 2-(3-Chloro-6-fluoro-2-methoxyphenyl)-2,2-difluoroacetic acid] | 30% | 10% | 20% | 50% | 50% |  | 60% | 20% | 50% | 60% | 50% |  | 
